{
  "source": "patent US9605050B2",
  "about": "“Glycoprotein synthesis and remodeling by enzymatic transglycosylation” (UNIVERSITY OF MARYLAND, BALTIMORE, priority 2006, dated 2017)",
  "molecules": {"B1": {"name": "glycoprotein 44: homogeneous ribonuclease B glycoform carrying nonnatural N-glycan Gal2Man3GlcNAc2 at Asn-34 (protein, UniProt P61823 27-150, looked up)", "Ribonuclease pancreatic": "KETAAAKFERQHMDSSTSAASSSNYCNQMMKSRNLTKDRCKPVNTFVHESLADVQAVCSQKNVACKNGQTNCYQSYSTMSITDCRETGSSKYPNCAYKTTQANKHIIVACEGNPYVPVHFDASV", "modifications": "Gal2Man3GlcNAc2 N-glycan at Asn-34"}},
  "key": {"Endo-A [1]": {"target": "T1, Endo-A (Glutamicibacter protophormiae, UniProt Q9ZB22)", "T1 sequence (Q9ZB22 entry or part of it)": "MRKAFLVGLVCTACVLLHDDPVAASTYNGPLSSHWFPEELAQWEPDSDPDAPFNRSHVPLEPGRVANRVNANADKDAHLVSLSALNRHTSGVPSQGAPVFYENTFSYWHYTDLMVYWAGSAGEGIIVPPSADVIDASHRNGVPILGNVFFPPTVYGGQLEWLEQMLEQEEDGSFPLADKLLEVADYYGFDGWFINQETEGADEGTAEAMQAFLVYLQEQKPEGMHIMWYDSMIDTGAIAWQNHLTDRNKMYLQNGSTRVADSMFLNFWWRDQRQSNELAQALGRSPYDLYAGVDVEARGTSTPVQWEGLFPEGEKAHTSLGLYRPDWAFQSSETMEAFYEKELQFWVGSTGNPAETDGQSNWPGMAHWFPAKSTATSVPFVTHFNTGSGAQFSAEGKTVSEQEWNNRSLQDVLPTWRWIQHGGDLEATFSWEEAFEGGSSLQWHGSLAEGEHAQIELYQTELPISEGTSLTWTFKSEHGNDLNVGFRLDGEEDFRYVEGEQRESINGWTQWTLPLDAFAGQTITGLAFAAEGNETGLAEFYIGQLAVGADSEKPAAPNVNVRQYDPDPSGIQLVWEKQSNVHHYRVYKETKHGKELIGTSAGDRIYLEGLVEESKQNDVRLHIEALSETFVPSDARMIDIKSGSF", "assay": "Endo-A catalyzed transglycosylation of synthetic oligosaccharide oxazolines (donor substrates) with GlcNAc-peptide/protein acceptors", "type": "biochemical, Arthrobacter protophormiae", "conditions": "for donor substrate activity in Endo-A catalyzed transglycosylation: GlcNAc-tripeptide acceptor (27 or 40), phosphate buffer pH 6.5; for relative transglycosylation rates (order): acceptor 27, same conditions; for donor substrate activity in Endo-A transglycosylation to large acceptor: acceptor GlcNAc-C34, donor/acceptor 5:1", "from_the_text": "To test the transglycosylation potential of the synthetic oligosaccharide oxazolines, a small GlcNAc-tripeptide acceptor, Asn(GlcNAc)-Ile-Thr was synthesized, which represents the minimum consensus sequence for the N24 and N38 N-glycosylation sites in erythropoietin, an important therapeutic glycoprotein for the treatment of anemia.[25] […] As expected, the Endo-A catalyzed reaction of oxazolines 1 and 2 with the GlcNAc-peptide 27 (donoracceptor 3:1) proceeded smoothly in a phosphate buffer (pH 6.5) to give the corresponding N-glycopeptides 28 and 29 in 63 and 86% yields, respectively. […] Thus incubation of 3 and acceptor 27 (ratio 3:1) in the presence of Endo-A gave glycopeptide 30 carrying the N-linked tetrasaccharide moiety in 72% isolated yield. […] The Endo-A catalyzed reaction of 4 with acceptor 27 (3:1) afforded the modified glycopeptide 31 in 55% isolated yield.\n(§1) In all cases, the newly formed glycosidic bond in the resulting glycopeptides 28, 29, 30, and 31 was determined by 2D NMR analysis (data not shown) to be a β-1,4-glycosidic linkage, confirming the previous conclusion that the Endo-A catalyzed transglycosylation using oligosaccharide oxazoline as the donor substrates proceeded in a regio- and stereospecific manner.[11]\nNext, the structurally related disaccharide oxazolines 5-7 were tested. […] Despite this, the enzyme could tolerate selective modification on the mannose moiety, for example, attachment of additional sugar moieties at the 3′,6′-positions and even an aromatic group at the 6′-position.\n(§2) This led to the synthesis of the large glycopeptide 32 that contains the core N-linked tetrasaccharide (75% yield) and glycopeptide 33 which carries a modified trisaccharide (68%) when an excess oxazoline donor (donor/acceptor 5:1) was used. […] Finally, we also tested whether Endo-A could hydrolyze the resulting “ground-state” glycopeptides 28-33 carrying the N-linked core tri-, tetra-, and pentasaccharide, respectively.\nA mixture of the respective oligosaccharide oxazoline (10-30 μmol) and the GlcNAc-tripeptide 27 (3 molar equivalents of the donor) or the GlcNAc-C34[7] (5 molar equivalents of the donor) in a phosphate buffer (50 mM, pH 6.5, 0.5-1 mL) was incubated at 25° C. with the enzyme Endo-A (100 mU). The oxazoline derivative was added in portions during the reaction. The reaction was monitored by analytical HPLC by taking aliquots at intervals. It was observed that the transglycosylation reaction with the disaccharide oxazoline derivatives 1 and 4 proceeded slowly and took more than 48 h for reaching the plateau, while the transglycosylation with the tetrasaccharide oxazoline 2 proceeded quickly and would be complete within 2 h. The reaction was stopped by heating in a boiling water bath for 3 min when the peak of the transglycosylation product reached the maximum. The product was purified by preparative HPLC on a Waters preparative column (Symmetry 300, 19×300 mm) to afford the respective glycopeptide, which was characterized by NMR and ESI-MS).\nTo examine whether the endoglycosidase Endo-A is able to recognize the synthetic nonnatural sugar oxazoline for trans-glycosylation, a model reaction was carried out with a small GlcNAc-peptide, Ac-Asn(GlcNAc)-Ile-Thr (40),[9] as the acceptor, as shown in FIG. 11. The enzymatic reaction was monitored by reverse-phase HPLC. It was observed that the reaction between 39 and 40 (molar ratio 2:1) occurred quickly in the presence of Endo-A, while no ligation would occur in the absence of the enzyme. The glycosylation of the acceptor 40 with oxazoline 39 under the catalysis of Endo-A was essentially complete within 30 min to form the glycopeptide 41, which was isolated in 98% yield. The identity of the glycopeptide was characterized by ESI-MS and NMR.\nA mixture of the hexasaccharide oxazoline 39 (0.69 mg, 0.68 μmol) and the GlcNAc-tripeptide 40 (0.2 mg, 0.34 μmol) in a phosphate buffer (50 mM, pH 6.5, 100 μl) was incubated at 23° C. with the enzyme Endo-A (200 mU). […]"}, "Bacillus chitinase": {"tested_on": "Bacillus chitinase", "conditions": "cited from earlier work"}, "Endo-A [2]": {"target": "T1, Endo-A", "assay": "Endo-A catalyzed transglycosylation of synthetic oligosaccharide oxazolines (donor substrates) with GlcNAc-peptide/protein acceptors", "type": "biochemical, Arthrobacter protophormiae", "conditions": "acceptor GlcNAc-RB (43), donor/acceptor 2:1, pH 6.5, 23° C., Endo-A 200 mU"}, "Endo-A [3]": {"target": "T1, Endo-A", "assay": "Endo-A catalyzed hydrolysis of oxazolines and of the resulting glycopeptides/glycoprotein", "type": "biochemical, Arthrobacter protophormiae", "conditions": "glycopeptides: in the presence of large amount of Endo-A", "procedure": "as §1, §2\nThis is understandable because glycoprotein 44 carries a nonnatural N-glycan and Endo-A is known to hydrolyze only high-mannose type natural N-glycans. […] All these factors contribute to the formation of the trans-glycosylation product. Similarly, Endo-A catalyzed reaction of GlcNAc-RB with the tetrasaccharide oxazoline 2 [7] gave the glycoprotein 45 carrying the core N-linked pentasaccharide Man3GlcNAc2 in 82% yield (Scheme 3). Again, the observed MS (14574.5 Da, from the deconvolution of the ESI-MS data) of the isolated product matches well with the calculated MS (14575.6 Da) of glycoprotein 45. […]"}},
  "data": [
    {"molecule": "CC1=N[C@H]2[C@@H](O1)O[C@H](CO)[C@@H](O[C@@H]1O[C@H](COCc3ccccc3)[C@@H](O)[C@H](O)[C@@H]1O)[C@@H]2O", "note": "[oxazoline 4]", "values": [
      {"measurement": "donor substrate activity in Endo-A catalyzed transglycosylation", "setting": "Endo-A [1]", "result": "could still be recognized by Endo-A as a donor substrate"},
      {"measurement": "relative transglycosylation rates (order)", "setting": "Endo-A [1]", "result": "tetrasaccharide oxazoline 2>trisaccharide oxazoline 3>disaccharide oxazoline 1>Bn-substituted disaccharide oxazoline 4"},
      {"measurement": "donor substrate activity in Endo-A transglycosylation to large acceptor", "setting": "Endo-A [1]", "result": "proceeded successfully"}
    ]},
    {"molecule": "CC1=N[C@H]2[C@@H](O1)O[C@H](CO)[C@@H](O[C@@H]1O[C@H](CO[C@H]3O[C@H](CO)[C@@H](O)[C@H](O)[C@@H]3O)[C@@H](O)[C@H](O)[C@@H]1O)[C@@H]2O", "note": "[oxazoline 3]", "values": [
      {"measurement": "donor substrate activity in Endo-A catalyzed transglycosylation", "setting": "Endo-A [1]", "result": "efficient donor substrate"},
      {"measurement": "relative transglycosylation rates (order)", "setting": "Endo-A [1]", "result": "tetrasaccharide oxazoline 2>trisaccharide oxazoline 3>disaccharide oxazoline 1>Bn-substituted disaccharide oxazoline 4"},
      {"measurement": "donor substrate activity in Endo-A transglycosylation to large acceptor", "setting": "Endo-A [1]", "result": "proceeded successfully"}
    ]},
    {"molecule": "CC(=O)N[C@H]1[C@H](O[C@H]2[C@H](O)[C@H]3N=C(C)O[C@H]3O[C@@H]2CO)O[C@H](CO)[C@@H](O)[C@@H]1O", "note": "[oxazoline 6, chitobiose oxazoline, reference compound]", "values": [
      {"measurement": "donor substrate activity in Endo-A catalyzed transglycosylation", "setting": "Endo-A [1]", "result": "could not be recognized by Endo-A"},
      {"measurement": "substrate of Bacillus chitinase", "setting": "Bacillus chitinase", "result": "substrates"}
    ]},
    {"molecule": "CC1=NC2C(O1)OC(CO)C(OC1OC(CO)C(O)C(O)C1O)C2O", "note": "(stereo not drawn) [oxazoline 5]", "values": [
      {"measurement": "donor substrate activity in Endo-A catalyzed transglycosylation", "setting": "Endo-A [1]; listed as 5", "result": "inactive"}
    ]},
    {"molecule": "CC1=N[C@H]2[C@@H](O1)O[C@H](CO)[C@@H](O[C@@H]1O[C@H](CO)[C@@H](O)[C@H](O)[C@@H]1O)[C@@H]2O", "note": "[oxazoline 1]", "values": [
      {"measurement": "donor substrate activity in Endo-A catalyzed transglycosylation", "setting": "Endo-A [1]", "result": "good donor substrates"},
      {"measurement": "relative transglycosylation rates (order)", "setting": "Endo-A [1]", "result": "tetrasaccharide oxazoline 2>trisaccharide oxazoline 3>disaccharide oxazoline 1>Bn-substituted disaccharide oxazoline 4"}
    ]},
    {"molecule": "CC1=NC2C(O1)OC(CO)C(OC1OC(CO)C(O)C(O)C1O)C2O", "note": "(stereo not drawn) [oxazoline 7, LacNAc-oxazoline, reference compound]", "values": [
      {"measurement": "donor substrate activity in Endo-A catalyzed transglycosylation", "setting": "Endo-A [1]; listed as 7", "result": "could not be recognized by Endo-A"},
      {"measurement": "substrate of Bacillus chitinase", "setting": "Bacillus chitinase", "result": "substrates"}
    ]},
    {"molecule": "O-β-D-Galactopyranosyl-(1→4)-α-D-mannopyranosyl-(1→3)-[β-D-galactopyranosyl-(1→4)-α-D-mannopyranosyl-(1→6)]-β-D-mannopyranosyl-(1β4)-(1,2-dideoxy-α-D-glucopyrano)-[2,1-d]-2-oxazoline [oxazoline 39]", "values": [
      {"measurement": "donor substrate activity in Endo-A catalyzed transglycosylation", "setting": "Endo-A [1]", "result": "excellent substrate"},
      {"measurement": "time to essentially complete glycosylation of acceptor 40", "setting": "Endo-A [1]; acceptor Ac-Asn(GlcNAc)-Ile-Thr (40), donor/acceptor 2:1, 23° C., Endo-A 200 mU", "result": "≤ 30", "unit": "min"},
      {"measurement": "transglycosylation rate compared with enzymatic hydrolysis of the oxazoline", "setting": "Endo-A [1]; in the presence of a GlcNAc-peptide or protein acceptor", "result": "much faster"},
      {"measurement": "time to complete conversion of GlcNAc-RB", "setting": "Endo-A [2]", "result": "≤ 2", "unit": "h"}
    ]},
    {"molecule": "B1", "values": [
      {"measurement": "hydrolysis of the ground-state glycopeptide/glycoprotein by Endo-A", "setting": "Endo-A [3]", "result": "resistant to Endo-A catalyzed hydrolysis"}
    ]}
  ]
}
